Reference: patent publication US20050288299A1, “Azaindole derivatives as inhibitors of p38 kinase” (priority 2002, published 2005)

Biological target: p38α kinase (Homo sapiens, UniProt Q16539)
Assay: p38α Flash Plate Assay (p38 kinase inhibition)
Assay type: biochemical
Settings: in vitro; 150 μM ATP, 0.05 mM biotinylated peptide substrate, 5 nM enzyme, 60 minute incubation at 30° Celsius; read-out: P38 α-FLASHPLATE IC50
Protocol: Assay for p38 Kinase Inhibition—p38α Flash Plate Assay
The compounds to be tested were solubilized in DMSO and diluted with water to the desired concentrations. The p38 kinase was diluted to 20 nM into a buffer containing 20 mM MOPS, pH 7.0, 25 mM beta-glycerol phosphate, 2 mg/ml gelatin, 0.5 mM EGTA (ethylene-bis-(oxyethylenenitrilo)-tetraacetic acid), and 4 mM dithiothreitol (DTT).
The reaction was carried out by mixing 20 μl test compound with 10 μl of a substrate cocktail containing 0.2 mM biotinylated peptide substrate and 0.6 mM ATP (+100 μCi/ml gamma-^33P-ATP) in a 5× assay buffer. The reaction was initiated by the addition of 10 μl of p38 kinase. Final assay conditions were 25 mM MOPS, pH 7.0, 26.25 mM beta-glycerol phosphate, 80 mM KCl, 22 mM MgCl2, 3 mM MgSO4, 1 mg/ml gelatin, 0.625 mM EGTA, 1 mM DTT, 0.05 mM peptide substrate, 150 μM ATP, and 5 nM enzyme. After a 60 minute incubation at 30° Celsius, the reaction was stopped by the addition of 10 μl per reaction of 0.25 M phosphoric acid.
A portion of the reaction was transferred to a streptavidin-coated Flash Plate (Perkin Elmer); the Flash Plate was incubated for 60 minutes at 30° Celsius and then washed 3× with PBS containing 0.01% Tween-20.
Counts incorporated are determined on a scintillation counter. Relative enzyme activity was calculated by subtracting background counts (counts measured in the absence of enzyme) from each result, and comparing the resulting counts to those obtained in the absence of inhibitor. IC50 values were determined with curve-fitting plots available with common software packages. The IC50 was expressed as the concentration of compound which inhibited the enzyme activity by 50%.

Sequence of p38α kinase (Q16539 whole entry): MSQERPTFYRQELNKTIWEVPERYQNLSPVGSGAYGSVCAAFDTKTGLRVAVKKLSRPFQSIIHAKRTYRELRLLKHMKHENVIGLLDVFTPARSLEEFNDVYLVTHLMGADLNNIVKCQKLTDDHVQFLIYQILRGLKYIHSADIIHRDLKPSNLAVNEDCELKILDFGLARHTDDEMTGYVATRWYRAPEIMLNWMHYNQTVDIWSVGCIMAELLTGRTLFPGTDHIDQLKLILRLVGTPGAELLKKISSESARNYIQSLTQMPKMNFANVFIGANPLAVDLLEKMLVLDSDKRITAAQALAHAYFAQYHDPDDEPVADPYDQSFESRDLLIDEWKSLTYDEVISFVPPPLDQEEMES

| SMILES | IC50 |
| --- | --- |
| COc1nc2[nH]cc(C(=O)C(=O)N(C)C)c2cc1C(=O)N1C[C@H](C)N(C(c2ccccc2)c2ccccc2)C[C@H]1C [compound 22] | 0.07 µM |
| COc1nc2[nH]cc(C(=O)C(=O)NC3CCCC3)c2cc1C(=O)N1C[C@H](C)N(C(c2ccccc2)c2ccccc2)C[C@H]1C [compound 25] | 0.13 µM |
| COc1cc2[nH]ccc2nc1C(=O)N1C[C@H](C)N(Cc2ccc(F)cc2)C[C@H]1C [compound 74] | 0.098 µM |
| Cc1nc2[nH]ccc2cc1C(=O)N1C[C@H](C)N(Cc2ccc(F)cc2)C[C@H]1C [compound 40] | 0.42 µM |
| CNC(=O)C(=O)c1cn(Cc2ccc(OC)cc2)c2nc(OC)c(C(=O)N3C[C@H](C)N(Cc4ccc(F)cc4)C[C@H]3C)cc12 [compound 39] | 0.61 µM |
| CCNC(=O)C(=O)c1cn(C)c2nc(OC)c(C(=O)N3C[C@H](C)N(Cc4ccc(F)cc4)C[C@H]3C)cc12 [compound 44] | 0.07 µM |
| COc1nc2[nH]cc(C(=O)C(=O)N3CCCC3)c2cc1C(=O)N1C[C@H](C)N(C(c2ccccc2)c2ccccc2)C[C@H]1C [compound 23] | 0.12 µM |
| COc1nc2[nH]cc(C(=O)C(=O)NC(C)C)c2cc1C(=O)N1C[C@H](C)N(Cc2ccc(F)cc2)C[C@H]1C [compound 48] | 0.05 µM |
| Cc1nc2[nH]cc(C(=O)C(=O)N3CCCC3)c2cc1C(=O)N1C[C@H](C)N(Cc2ccc(F)cc2)C[C@H]1C [compound 65] | 0.08 µM |
| CNC(=O)C(=O)c1c[nH]c2nc(C)c(C(=O)N3C[C@H](C)N(Cc4ccc(F)cc4)C[C@H]3C)cc12 [compound 62] | 0.07 µM |
| CNC(=O)C(=O)c1c[nH]c2ccc(C(=O)N3C[C@H](C)N(Cc4ccc(F)cc4)C[C@H]3C)nc12 [compound 70] | 0.6 µM |
| CCOc1nc2[nH]cc(C(=O)C(N)=O)c2cc1C(=O)N1CCC(Cc2ccc(F)cc2)CC1 [compound 37] | 0.067 µM |
| C[C@@H]1CN(Cc2ccc(F)cc2)[C@@H](C)CN1C(=O)c1ccc2[nH]ccc2n1 [compound 67] | 0.75 µM |
| CNC(=O)C(=O)c1c[nH]c2cc(OC)c(C(=O)N3C[C@H](C)N(Cc4ccc(F)cc4)C[C@H]3C)nc12 [compound 76] | 0.098 µM |
| COC(=O)C(=O)c1c[nH]c2ccc(C(=O)N3C[C@H](C)N(Cc4ccc(F)cc4)C[C@H]3C)nc12 [compound 68] | 0.76 µM |
| COc1nc2c(cc1C(=O)N1C[C@H](C)N(Cc3ccc(F)cc3)C[C@H]1C)c(C(=O)C(=O)N1CCCC1)cn2C [compound 46] | 0.05 µM |

| SMILES | IC50 |
| --- | --- |
| Cc1nc2c(ccn2C)cc1C(=O)N1C[C@H](C)N(Cc2ccc(F)cc2)C[C@H]1C [compound 60] | 0.16 µM |
| COc1ccc(Cn2ccc3cc(C(=O)N4C[C@H](C)N(Cc5ccc(F)cc5)C[C@H]4C)c(OC)nc32)cc1 [compound 38] | 1.5 µM |
| CCOc1nc2[nH]cc(C(=O)C(=O)NC(C)C)c2cc1C(=O)N1C[C@H](C)N(Cc2ccc(F)cc2)C[C@H]1C [compound 58] | 0.05 µM |
| COc1nc2[nH]cc(C(=O)C(F)(F)F)c2cc1C(=O)N1CCC(Cc2ccc(F)cc2)CC1 [compound 26] | 0.095 µM |
| COc1nc2[nH]cc(C(=O)C(N)=O)c2cc1C(=O)N1CCN(Cc2ccc(F)cc2)C[C@H]1C [compound 31] | 0.1 µM |
| COc1nc2c(cc1C(=O)N1C[C@H](C)N(Cc3ccc(F)cc3)C[C@H]1C)c(C(=O)C(=O)NC(C)C)cn2C [compound 49] | 0.06 µM |
| CNC(=O)C(=O)c1cn(COC)c2nc(OC)c(C(=O)N3C[C@H](C)N(Cc4ccc(F)cc4)C[C@H]3C)cc12 [compound 54] | 0.05 µM |
| COCn1cc(C(=O)C(=O)N2CCCC2)c2cc(C(=O)N3C[C@H](C)N(Cc4ccc(F)cc4)C[C@H]3C)c(OC)nc21 [compound 56] | 0.04 µM |
| CCNC(=O)C(=O)c1c[nH]c2nc(C)c(C(=O)N3C[C@H](C)N(Cc4ccc(F)cc4)C[C@H]3C)cc12 [compound 64] | 0.08 µM |
| CNC(=O)C(=O)c1c[nH]c2nc(OC)c(C(=O)N3C[C@H](C)N(C(c4ccccc4)c4ccccc4)C[C@H]3C)cc12 [compound 24] | 0.042 µM |
| Cc1nc2[nH]cc(C(=O)C(N)=O)c2cc1C(=O)N1C[C@H](C)N(Cc2ccc(F)cc2)C[C@H]1C [compound 66] | 0.08 µM |
| COc1nc2[nH]cc(C(=O)C(N)=O)c2cc1C(=O)N1CCC(Cc2ccc(F)cc2)CC1 [compound 17] | 0.057 µM |
| CCNC(=O)C(=O)c1cn(COC)c2nc(OC)c(C(=O)N3C[C@H](C)N(Cc4ccc(F)cc4)C[C@H]3C)cc12 [compound 51] | 0.06 µM |
| C[C@@H]1CN(Cc2ccc(F)cc2)[C@@H](C)CN1C(=O)c1ccc2[nH]cc(C(=O)C(=O)O)c2n1 [compound 69] | 0.7 µM |
| CNC(=O)C(=O)c1cn(C)c2nc(C)c(C(=O)N3C[C@H](C)N(Cc4ccc(F)cc4)C[C@H]3C)cc12 [compound 61] | 0.09 µM |

Further compounds by falling IC50, results first:

| IC50 | SMILES |
| --- | --- |
| 0.04 µM | CONC(=O)C(=O)c1cn(C)c2nc(OC)c(C(=O)N3C[C@H](C)N(Cc4ccc(F)cc4)C[C@H]3C)cc12 [compound 50] |
| 0.039 µM | CCNC(=O)C(=O)c1c[nH]c2nc(OC)c(C(=O)N3CCC(Cc4ccc(F)cc4)CC3)cc12 [compound 16] |
| 0.038 µM | COc1nc2[nH]c(C)c(C(=O)C(=O)N3CCCC3)c2cc1C(=O)N1CCC(Cc2ccc(F)cc2)CC1 [compound 15] |
| 0.034 µM | COC(=O)C(=O)c1c[nH]c2cc(Cl)c(C(=O)N3C[C@H](C)N(Cc4ccc(F)cc4)C[C@H]3C)nc12 [compound 71] |
| 0.03 µM | COc1nc2[nH]cc(C(=O)C(=O)N3CCCC3)c2cc1C(=O)N1C[C@H](C)N(Cc2ccc(F)cc2)C[C@H]1C [No. 5, 1-{5-[4-(4-Fluoro-benzyl)-2R,5S-dimethyl-piperazine-1-carbonyl]-6-methoxy-1H-pyrrolo[2,3-b]pyridin-3-yl}-2-pyrrolidin-1-yl-ethane-1,2-dione] |
| 0.03 µM | CCOc1nc2[nH]cc(C(=O)C(=O)NC)c2cc1C(=O)N1C[C@H](C)N(Cc2ccc(F)cc2)C[C@H]1C [compound 34] |
| 0.03 µM | COCn1cc(C(=O)C(N)=O)c2cc(C(=O)N3C[C@H](C)N(Cc4ccc(F)cc4)C[C@H]3C)c(OC)nc21 [compound 53] |
| 0.03 µM | CCNC(=O)C(=O)c1c[nH]c2nc(OCC)c(C(=O)N3C[C@H](C)N(Cc4ccc(F)cc4)C[C@H]3C)cc12 [compound 57] |
| 0.03 µM | CNC(=O)C(=O)c1c[nH]c2nc(OC)c(C(=O)N3CCN([C@H](C)c4ccc(F)cc4)C[C@H]3C)cc12 [compound 32] |
| 0.03 µM | CCOc1nc2[nH]cc(C(=O)C(=O)N3CCCC3)c2cc1C(=O)N1C[C@H](C)N(Cc2ccc(F)cc2)C[C@H]1C [compound 59] |
| 0.03 µM | Cc1nc2[nH]cc(C(=O)C(=O)N(C)C)c2cc1C(=O)N1C[C@H](C)N(Cc2ccc(F)cc2)C[C@H]1C [compound 63] |
| 0.02 µM | CNC(=O)C(=O)c1cn(C)c2nc(OC)c(C(=O)N3C[C@H](C)N(Cc4ccc(F)cc4)C[C@H]3C)cc12 [compound 42] |
| 0.02 µM | COc1nc2c(cc1C(=O)N1C[C@H](C)N(Cc3ccc(F)cc3)C[C@H]1C)c(C(=O)C(N)=O)cn2C [compound 41] |
| 0.02 µM | CNC(=O)C(=O)c1c[nH]c2cc(Cl)c(C(=O)N3C[C@H](C)N(Cc4ccc(F)cc4)C[C@H]3C)nc12 [compound 73] |
| 0.02 µM | CNC(=O)C(=O)c1c[nH]c2nc(OC)c(C(=O)N3C[C@H](C)N(Cc4ccc(F)cc4)C[C@H]3C)cc12 [compound 18] |
| 0.02 µM | COCn1cc(C(=O)C(=O)N(C)C)c2cc(C(=O)N3C[C@H](C)N(Cc4ccc(F)cc4)C[C@H]3C)c(OC)nc21 [compound 55] |
| 0.02 µM | CCOc1nc2[nH]cc(C(=O)C(N)=O)c2cc1C(=O)N1C[C@H](C)N(Cc2ccc(F)cc2)C[C@H]1C [compound 35] |
| 0.02 µM | COc1nc2c(cc1C(=O)N1C[C@H](C)N(Cc3ccc(F)cc3)C[C@H]1C)c(C(=O)C(=O)N(C)OC)cn2C [compound 45] |
| 0.02 µM | CCNC(=O)C(=O)c1c[nH]c2nc(OC)c(C(=O)N3C[C@H](C)N(Cc4ccc(F)cc4)C[C@H]3C)cc12 [compound 47] |
| 0.015 µM | COc1nc2[nH]cc(C(=O)C(=O)O)c2cc1C(=O)N1CCC(Cc2ccc(F)cc2)CC1 [compound 33] |
| 0.014 µM | C[C@@H]1CN(Cc2ccc(F)cc2)[C@@H](C)CN1C(=O)c1nc2c(C(=O)C(=O)O)c[nH]c2cc1Cl [compound 72] |
| 0.012 µM | CCN(C)C(=O)C(=O)c1c[nH]c2nc(OC)c(C(=O)N3C[C@H](C)N(Cc4ccc(F)cc4)C[C@H]3C)cc12 [compound 20] |
| 0.01 µM | COc1nc2[nH]cc(C(=O)C(N)=O)c2cc1C(=O)N1C[C@H](C)N(Cc2ccc(F)cc2)C[C@H]1C [compound 30] |
| 0.01 µM | COc1nc2c(cc1C(=O)N1C[C@H](C)N(Cc3ccc(F)cc3)C[C@H]1C)c(C(=O)C(=O)N(C)C)cn2C [compound 43] |
| 0.01 µM | COc1nc2[nH]cc(C(=O)C(=O)N3CC[C@@H](O)C3)c2cc1C(=O)N1C[C@H](C)N(Cc2ccc(F)cc2)C[C@H]1C [compound 21] |
| 0.0082 µM | COc1nc2[nH]cc(C(=O)C(=O)N(C)C)c2cc1C(=O)N1C[C@H](C)N(Cc2ccc(F)cc2)C[C@H]1C [compound 19] |
